# Measured values taken from patent US9416115B2, “Fused heterocyclic compounds as ion channel modulators” (Gilead Sciences, Inc., priority 2013, dated 2016).
# Where two headings read alike, the source gives them in different places.
# Columns and labels:
# [1] = biological target: wild-type human cardiac sodium channel, hNav1.5 (Homo sapiens, UniProt Q14524); experiment: Peak INa screening assay (tonic block and use-dependent block); format: cell-based
# Procedure, shortened: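 HEK293 cells stably expressing hNav1.5 (no beta subunits), automated whole-cell patch clamp at 23-25° C, 40 mM Na+ bath (choline substitution), pH 7.35. Compound at 1 or 3 μM, added twice then 200 s equilibration; tonic block by steps to −20 mV from −100 mV at 0.1 Hz, use-dependent block at pulse 50 of a 3 Hz train, rundown-corrected versus compound-free.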
# hNaV1.2 (SCN2A) = biological target: T1, hNaV1.2 (SCN2A) (Homo sapiens, UniProt Q99250); experiment: Use-dependent inhibition of the CNS Nav1.2 sodium channel; format: cell-based; settings: use-dependent block, 25 Hz, pulse 20, read-out: Nav1.2 UDB 25 Hz 10 uM
# T1 construct: expressed in transfected cells
# Procedure, shortened: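 Use-dependent block of human Nav1.2 was measured by automated whole-cell patch clamp (QPatch) in HEK-293 cells stably expressing hNaV1.2 with SCN1B and SCN2B. From a holding potential of −120 mV, a train of 20 pulses to 0 mV (20 ms, 25 Hz) was applied. Peak current at pulse 20 was normalized to the first pulse, and percent inhibition was calculated relative to compound-free recordings.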
# [2] = tonic block of Peak INa, 0.1 Hz, holding -100 mV, read-out: Peak TB 3 uM
# [3] = use-dependent block of Peak INa, 3 Hz, pulse 50, read-out: Peak UDB 3 Hz 3 uM
# T1 sequence (Q99250 whole entry): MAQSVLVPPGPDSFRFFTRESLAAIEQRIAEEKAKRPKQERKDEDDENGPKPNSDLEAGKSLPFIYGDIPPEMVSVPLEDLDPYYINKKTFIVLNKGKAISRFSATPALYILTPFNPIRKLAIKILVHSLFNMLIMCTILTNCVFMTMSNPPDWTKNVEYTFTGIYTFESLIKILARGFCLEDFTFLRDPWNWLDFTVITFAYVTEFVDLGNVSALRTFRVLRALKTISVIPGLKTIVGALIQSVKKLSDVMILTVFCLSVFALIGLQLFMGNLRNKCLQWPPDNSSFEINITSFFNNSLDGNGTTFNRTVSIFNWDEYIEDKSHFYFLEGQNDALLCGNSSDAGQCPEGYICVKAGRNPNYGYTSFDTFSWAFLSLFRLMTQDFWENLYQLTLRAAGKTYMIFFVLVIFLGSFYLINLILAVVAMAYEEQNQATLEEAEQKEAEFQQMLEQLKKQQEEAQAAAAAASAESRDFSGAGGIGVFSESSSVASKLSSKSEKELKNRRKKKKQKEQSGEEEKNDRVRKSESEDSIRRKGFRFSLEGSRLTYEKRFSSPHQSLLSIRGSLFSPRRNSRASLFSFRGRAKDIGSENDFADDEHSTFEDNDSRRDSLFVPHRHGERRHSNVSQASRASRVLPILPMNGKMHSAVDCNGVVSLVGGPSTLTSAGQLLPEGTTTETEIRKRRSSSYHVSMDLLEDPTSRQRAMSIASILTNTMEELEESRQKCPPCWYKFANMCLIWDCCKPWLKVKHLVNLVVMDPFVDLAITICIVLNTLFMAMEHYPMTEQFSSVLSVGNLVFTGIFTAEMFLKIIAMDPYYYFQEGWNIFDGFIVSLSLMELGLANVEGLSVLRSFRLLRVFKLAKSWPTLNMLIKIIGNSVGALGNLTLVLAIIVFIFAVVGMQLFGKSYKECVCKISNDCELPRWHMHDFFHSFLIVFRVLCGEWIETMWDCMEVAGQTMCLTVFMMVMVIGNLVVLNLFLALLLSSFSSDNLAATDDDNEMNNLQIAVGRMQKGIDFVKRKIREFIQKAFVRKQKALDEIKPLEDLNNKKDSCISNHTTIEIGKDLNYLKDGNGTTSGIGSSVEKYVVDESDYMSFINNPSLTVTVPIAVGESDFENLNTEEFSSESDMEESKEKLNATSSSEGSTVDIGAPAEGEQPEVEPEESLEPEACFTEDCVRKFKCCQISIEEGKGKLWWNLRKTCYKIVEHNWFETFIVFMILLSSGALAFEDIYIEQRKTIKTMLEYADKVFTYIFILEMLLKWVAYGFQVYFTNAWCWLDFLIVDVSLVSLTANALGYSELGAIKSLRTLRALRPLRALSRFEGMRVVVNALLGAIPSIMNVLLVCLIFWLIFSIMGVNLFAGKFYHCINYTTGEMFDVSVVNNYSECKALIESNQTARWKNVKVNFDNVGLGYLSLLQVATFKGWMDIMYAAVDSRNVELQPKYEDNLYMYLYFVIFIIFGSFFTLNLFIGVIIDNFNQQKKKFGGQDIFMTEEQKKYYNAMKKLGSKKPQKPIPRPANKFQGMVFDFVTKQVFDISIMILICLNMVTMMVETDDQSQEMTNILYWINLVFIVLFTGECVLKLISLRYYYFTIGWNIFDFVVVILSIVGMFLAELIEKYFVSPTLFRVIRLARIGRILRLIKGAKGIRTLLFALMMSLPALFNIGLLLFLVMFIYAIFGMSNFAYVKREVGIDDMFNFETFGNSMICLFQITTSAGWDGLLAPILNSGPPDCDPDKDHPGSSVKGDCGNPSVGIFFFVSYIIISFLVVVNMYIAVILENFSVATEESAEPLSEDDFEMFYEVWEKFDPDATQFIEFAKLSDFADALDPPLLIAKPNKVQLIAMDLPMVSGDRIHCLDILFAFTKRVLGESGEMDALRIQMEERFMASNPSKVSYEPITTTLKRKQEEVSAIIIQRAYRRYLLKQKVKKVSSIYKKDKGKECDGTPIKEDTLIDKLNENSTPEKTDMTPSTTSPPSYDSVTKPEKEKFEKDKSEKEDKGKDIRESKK
# T1 sequence (Q07699 19-218 partner): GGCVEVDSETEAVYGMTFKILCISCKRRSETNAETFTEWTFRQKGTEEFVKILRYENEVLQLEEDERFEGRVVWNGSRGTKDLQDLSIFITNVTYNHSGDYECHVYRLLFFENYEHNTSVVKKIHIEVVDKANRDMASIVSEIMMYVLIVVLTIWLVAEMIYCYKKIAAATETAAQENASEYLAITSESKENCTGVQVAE
# T1 sequence (O60939 30-215 partner): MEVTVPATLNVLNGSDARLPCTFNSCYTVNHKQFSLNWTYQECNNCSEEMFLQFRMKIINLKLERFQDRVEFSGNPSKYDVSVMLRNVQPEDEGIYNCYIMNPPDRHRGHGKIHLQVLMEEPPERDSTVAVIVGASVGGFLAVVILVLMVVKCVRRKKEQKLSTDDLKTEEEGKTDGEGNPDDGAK
# Sequence of wild-type human cardiac sodium channel, hNav1.5 (Q14524 whole entry): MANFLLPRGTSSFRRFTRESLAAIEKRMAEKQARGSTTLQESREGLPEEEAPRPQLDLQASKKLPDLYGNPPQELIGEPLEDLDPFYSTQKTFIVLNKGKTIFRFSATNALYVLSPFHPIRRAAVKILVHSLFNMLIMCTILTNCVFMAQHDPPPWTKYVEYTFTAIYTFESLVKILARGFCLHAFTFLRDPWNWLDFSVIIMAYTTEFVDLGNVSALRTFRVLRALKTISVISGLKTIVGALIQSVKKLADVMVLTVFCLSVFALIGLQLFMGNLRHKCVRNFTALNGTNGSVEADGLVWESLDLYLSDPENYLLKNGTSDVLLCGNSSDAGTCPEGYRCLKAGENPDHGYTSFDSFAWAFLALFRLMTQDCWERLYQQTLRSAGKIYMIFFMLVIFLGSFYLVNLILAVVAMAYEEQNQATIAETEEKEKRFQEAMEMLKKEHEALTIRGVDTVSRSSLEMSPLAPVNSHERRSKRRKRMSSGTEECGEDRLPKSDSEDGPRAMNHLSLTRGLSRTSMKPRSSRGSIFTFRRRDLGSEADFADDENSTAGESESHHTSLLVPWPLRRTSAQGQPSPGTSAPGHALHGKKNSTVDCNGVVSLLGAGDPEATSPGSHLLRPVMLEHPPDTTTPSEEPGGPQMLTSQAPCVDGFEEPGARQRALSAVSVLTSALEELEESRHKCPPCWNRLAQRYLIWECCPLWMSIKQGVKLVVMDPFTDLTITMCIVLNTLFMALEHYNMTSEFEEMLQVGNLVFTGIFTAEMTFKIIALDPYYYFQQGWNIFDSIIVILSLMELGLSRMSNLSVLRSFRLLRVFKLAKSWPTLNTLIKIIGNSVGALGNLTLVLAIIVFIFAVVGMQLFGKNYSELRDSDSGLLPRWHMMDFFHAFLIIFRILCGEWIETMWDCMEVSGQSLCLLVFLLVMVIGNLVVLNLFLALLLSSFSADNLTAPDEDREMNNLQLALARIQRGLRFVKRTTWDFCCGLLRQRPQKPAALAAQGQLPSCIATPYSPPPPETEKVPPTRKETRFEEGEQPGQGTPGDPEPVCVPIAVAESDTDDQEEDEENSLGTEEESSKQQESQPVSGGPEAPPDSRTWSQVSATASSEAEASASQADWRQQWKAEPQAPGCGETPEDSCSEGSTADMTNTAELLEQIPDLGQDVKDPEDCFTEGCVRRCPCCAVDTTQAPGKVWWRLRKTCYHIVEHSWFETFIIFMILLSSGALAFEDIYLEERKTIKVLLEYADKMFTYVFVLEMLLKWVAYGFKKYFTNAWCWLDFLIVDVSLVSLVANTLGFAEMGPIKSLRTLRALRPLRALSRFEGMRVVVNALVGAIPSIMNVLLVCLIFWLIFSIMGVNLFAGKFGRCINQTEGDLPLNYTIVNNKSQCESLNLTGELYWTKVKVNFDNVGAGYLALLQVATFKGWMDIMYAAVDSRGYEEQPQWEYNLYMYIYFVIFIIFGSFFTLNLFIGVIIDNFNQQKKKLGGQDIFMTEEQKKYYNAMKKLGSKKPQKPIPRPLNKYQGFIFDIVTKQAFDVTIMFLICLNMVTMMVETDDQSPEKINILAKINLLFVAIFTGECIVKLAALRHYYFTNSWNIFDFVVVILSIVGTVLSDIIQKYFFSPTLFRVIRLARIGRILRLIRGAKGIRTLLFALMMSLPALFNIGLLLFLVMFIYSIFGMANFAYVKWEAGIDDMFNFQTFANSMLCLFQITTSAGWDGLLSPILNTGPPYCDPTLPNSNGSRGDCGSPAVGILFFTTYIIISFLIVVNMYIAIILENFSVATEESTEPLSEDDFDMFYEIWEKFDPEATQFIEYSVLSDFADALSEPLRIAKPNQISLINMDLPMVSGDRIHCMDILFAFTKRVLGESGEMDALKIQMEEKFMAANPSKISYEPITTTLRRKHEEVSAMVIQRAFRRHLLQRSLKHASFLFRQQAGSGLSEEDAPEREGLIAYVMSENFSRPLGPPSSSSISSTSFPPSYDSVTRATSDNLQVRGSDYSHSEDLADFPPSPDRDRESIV
Structure (SMILES),"inhibition at 3 µM [1, 2] [%]","inhibition at 3 µM [1, 3] [%]",inhibition at 10 µM (hNaV1.2 (SCN2A)) [%]
"C[C@H](COc1noc2ccc(-c3ccc(OC(F)(F)F)cc3)cc12)N1CCCC1=O [Example 119, (R)-1-(1-((5-(4-(trifluoromethoxy)phenyl)benzo[d]isoxazol-3-yl)oxy)propan-2-yl)pyrrolidin-2-one]",36.1,6.4,52.3
"Cc1cc(-c2ccc(OC(F)(F)F)cc2)cc2c(OCc3nnc(C4CC4)o3)noc12 [Example 105, 3-((5-cyclopropyl-1,3,4-oxadiazol-2-yl)methoxy)-7-methyl-5-(4-(trifluoromethoxy)phenyl)benzo[d]isoxazole]",9.4,27.8,70.9
"Cc1nccnc1COc1noc2ccc(-c3ccc(OC(F)(F)F)cc3)cc12 [Example 152, 3-((3-methylpyrazin-2-yl)methoxy)-5-(4-(trifluoromethoxy)phenyl)benzo[d]isoxazole]",30.6,< 5,13.8
"FC(F)(F)Oc1ccc(-c2ccc3onc(Oc4ncccn4)c3c2)cc1 [Example 124, 3-(pyrimidin-2-yloxy)-5-(4-(trifluoromethoxy)phenyl)benzo[d]isoxazole]",49.9,< 5,44.9
"Cc1ccnc(COc2noc3ccc(-c4ccc(OC(F)(F)F)cc4)cc23)n1 [Example 5, 3-((4-methylpyrimidin-2-yl)methoxy)-5-(4-(trifluoromethoxy)phenyl)benzo[d]isoxazole]",18,< 5,< 5
"CC(=O)N1CC(COc2noc3ccc(-c4ccc(OC(F)(F)F)cc4)cc23)C1 [Example 110, 1-(3-(((5-(4-(trifluoromethoxy)phenyl)benzo[d]isoxazol-3-yl)oxy)methyl)azetidin-1-yl)ethan-1-one]",14.5,11.5,67.3
"COc1cc(-c2ccc(OC(F)(F)F)cc2)cc2c(OCc3ncccn3)noc12 [Example 22, 7-methoxy-3-(pyrimidin-2-ylmethoxy)-5-(4-(trifluoromethoxy)phenyl)benzo[d]isoxazole]",10.2,< 5,40
"CC(=O)N1CCOC[C@H]1COc1noc2ccc(-c3ccc(OC(F)(F)F)cc3)cc12 [Example 115, (S)-1-(3-(((5-(4-(trifluoromethoxy)phenyl)benzo[d]isoxazol-3-yl)oxy)methyl)morpholino)ethan-1-one]",19.8,18.3,70.8
"CC(C)(C)OC(=O)COc1noc2ccc(-c3ccc(OC(F)(F)F)cc3)cc12 [Example 157, tert-butyl 2-((5-(4-(trifluoromethoxy)phenyl)benzo[d]isoxazol-3-yl)oxy)acetate]",15.6,< 5,< 5
"CC(COc1noc2ccc(-c3ccc(OC(F)(F)F)cc3)cc12)n1cccn1 (stereo not drawn) [Example 68, 3-(2-(1H-pyrazol-1-yl)propoxy)-5-(4-(trifluoromethoxy)phenyl)benzo[d]isoxazole]",10.5,< 5,< 5
"FC(F)(F)Oc1cccc(-c2ccc3onc(OCc4ncccn4)c3c2)c1 [Example 10, 3-(pyrimidin-2-ylmethoxy)-5-(3-(trifluoromethoxy)phenyl)benzo[d]isoxazole]",16.4,5.7,< 5
"CN1CCN(c2noc3ccc(-c4ccc(OC(F)(F)F)cc4)cc23)CC1 [Example 127, 3-(4-methylpiperazin-1-yl)-5-(4-(trifluoromethoxy)phenyl)benzo[d]isoxazole]",23.7,25.1,76.5
